According to US8785488B2 (Exelixis Patent Company LLC, priority 2009, dated 2014):

What was measured:
human TGR5 (h-TGR5) = biological target: T1, human TGR5 (h-TGR5) (Homo sapiens, UniProt Q8TDU6); assay: TGR5/CRE-Luciferiase Assay (HEK 293 hTGR5/CRE-Luc cells); assay type: cell-based; settings: h-TGR5 CRE-Luc EC50, Table 1; read-out: CRE-Luc (EC50)
T1 construct: expressed in transfected cells
T1 sequence (Q8TDU6 1-330): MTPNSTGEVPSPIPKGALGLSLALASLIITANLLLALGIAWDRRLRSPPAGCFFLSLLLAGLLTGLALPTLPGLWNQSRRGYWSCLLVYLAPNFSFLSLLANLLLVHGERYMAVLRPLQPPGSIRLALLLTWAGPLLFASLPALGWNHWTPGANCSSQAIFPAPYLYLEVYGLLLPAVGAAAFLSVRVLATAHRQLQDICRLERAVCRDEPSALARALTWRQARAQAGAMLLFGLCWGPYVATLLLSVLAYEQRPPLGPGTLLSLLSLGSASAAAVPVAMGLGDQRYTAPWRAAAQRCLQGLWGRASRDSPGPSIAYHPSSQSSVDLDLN
How it was run: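 HEK293 cells stably carrying hTGR5 and a CRE-luciferase reporter were exposed to serially diluted compounds (diluted in DMEM with 5% DMSO) for 6 h. Cells were then lysed in luciferase buffer, luminescence was read, and EC50 values were derived from dose-response curves.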

h-TGR5 = biological target: T2, h-TGR5 (Homo sapiens, UniProt Q8TDU6); assay: TGR5 cAMP Assay using Cisbio cAMP Dynamic2 htrf kit (hTGR5CRE-luc HEK 293 cells); assay type: cell-based; settings: h-TGR5 cAMP EC50, Table 1; read-out: cAMP (EC50)
T2 construct: expressed in transfected cells
T2 sequence (Q8TDU6 1-330): T1 sequence (Q8TDU6 1-330)
How it was run: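 […], 4000 hTGR5CRE-luc HEK 293 cells per well, with 0.5 mM IBMX and d2-cAMP, were incubated 30 min at room temperature with compounds in 8-point half-log series, in quadruplicate.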

An EC50 (human TGR5 (h-TGR5)) of less than 100 nM and an EC50 (h-TGR5) of 100 to 1000 nM were found for `CC(C)(c1ccc(S(N)(=O)=O)c(Cl)c1)c1cnc(SCc2ccc(F)cc2Cl)n1-c1ccc(F)cc1` [2-chloro-4-{1-[2-{[(2-chloro-4-fluorophenyl)methyl]thio}-1-(4-fluorophenyl)-1H-imidazol-5-yl]-1-methylethyl}benzenesulfonamide] in this work.

An EC50 (human TGR5 (h-TGR5)) of less than 100 nM and an EC50 (h-TGR5) of less than 100 nM were found for `COc1cc(C(C)(C)c2cnc(SCc3c(F)cc(CCCCCNC(=N)N)cc3F)n2-c2ccc(F)cc2)ccc1Cl` [1-{5-[4-({[5-{1-[4-chloro-3-(methyloxy)pheny1]-1-methylethyl}-1-(4-fluorophenyl)-1H-imidazol-2-yl]thio}methyl)-3,5-difluorophenyl]pentyl}guanidine] in this work.

An EC50 (human TGR5 (h-TGR5)) of 100 to 1000 nM and an EC50 (h-TGR5) of 1000 to 10000 nM were found for `CC(C)(c1ccc(F)c(F)c1)c1cnc(SCc2ccc(S(=O)(=O)NC(=O)NN3CCCC3)cc2Cl)n1-c1ccc(F)c(Cl)c1` [3-chloro-4-[({1-(3-chloro-4-fluorophenyl)-5-[1-(3,4-difluorophenyl)-1-methylethyl]-1H-imidazol-2-yl}thio)methyl]-N-[(pyrrolidin-1-ylamino)carbonyl]benzenesulfonamide] in this work.

An EC50 (human TGR5 (h-TGR5)) of less than 100 nM and an EC50 (h-TGR5) of less than 100 nM were found for `COc1cc(C(C)(C)c2cnc(SCC3CCN(S(C)(=O)=O)CC3)n2-c2ccc(F)cc2)ccc1Cl` [4-({[5-{1-[4-chloro-3-(methyloxy)phenyl]-1-methylethyl}-1-(4-fluorophenyl)-1H-imidazol-2-yl]thio}methyl)-1-(methylsulfonyl)piperidine] in this work.

An EC50 (human TGR5 (h-TGR5)) of less than 100 nM and an EC50 (h-TGR5) of less than 100 nM were found for `CC(C)(c1ccc(S(N)(=O)=O)c(Cl)c1)c1cnc(SCc2c(F)cc(C(=O)O)cc2F)n1-c1ccc(F)c(F)c1` [4-({[5-{1-[4-(aminosulfonyl)-3-chlorophenyl]-1-methylethyl}-1-(3,4-difluorophenyl)-1H-imidazol-2-yl]thio}methyl)-3,5-difluorobenzoic acid] in this work.

An EC50 (human TGR5 (h-TGR5)) of less than 100 nM and an EC50 (h-TGR5) of 100 to 1000 nM were found for `CC(C)(c1ccc(Cl)c(Cl)c1)c1cnc(SCc2ccc(OCCO)c(S(N)(=O)=O)c2)n1-c1ccc(F)cc1` [5-[({5-[1-(3,4-dichlorophenyl)-1-methylethyl]-1-(4-fluorophenyl)-1H-imidazol-2-yl}thio)methyl]-2-[(2-hydroxyethyl)oxy]benzenesulfonamide] in this work.

An EC50 (human TGR5 (h-TGR5)) of less than 100 nM and an EC50 (h-TGR5) of less than 100 nM were found for `COc1cc(-n2c(C(C)(C)c3ccc(Cl)c(Cl)c3)cnc2SCc2c(F)cc(C(=O)NCCC(=O)O)cc2F)ccc1F` [N-({4-[({5-[1-(3,4-dichlorophenyl)-1-methylethyl]-1-[4-fluoro-3-(methyloxy)phenyl]-1H-imidazol-2-yl}thio)methyl]-3,5-difluorophenyl}carbonyl)-beta-alanine] in this work.

An EC50 (human TGR5 (h-TGR5)) of less than 100 nM and an EC50 (h-TGR5) of less than 100 nM were found for `COc1cc(C(C)(C)c2cnc(SCc3c(F)cc(C(=O)O)cc3Cl)n2-c2ccc(F)cc2)ccc1Cl` [3-chloro-4-({[5-{1-[4-chloro-3-(methyloxy)phenyl]-1-methylethyl}-1-(4-fluorophenyl)-1H-imidazol-2-yl]thio}methyl)-5-fluorobenzoic acid] in this work.

An EC50 (human TGR5 (h-TGR5)) of 100 to 1000 nM and an EC50 (h-TGR5) of less than 100 nM were found for `CC(C)(c1ccc(F)c(F)c1)c1cnc(SCc2c(F)cc(C(=O)O)cc2F)n1-c1ccc(F)cc1` in this work.

An EC50 (human TGR5 (h-TGR5)) of less than 100 nM and an EC50 (h-TGR5) of 100 to 1000 nM were found for `CC(C)(c1ccc(Cl)c(Cl)c1)c1cnc(SCC2CCN(c3nnn[nH]3)CC2)n1-c1ccc(F)cc1` [4-[({5-[1-(3,4-dichlorophenyl)-1-methylethyl]-1-(4-fluorophenyl)-1H-imidazol-2-yl}thio)methyl]-1-(1H-tetrazol-5-yl)piperidine] in this work.

An EC50 (human TGR5 (h-TGR5)) of 100 to 1000 nM and an EC50 (h-TGR5) of less than 100 nM were found for `COc1cc(C(C)(C)c2cnc(SCc3ccc(S(=O)(=O)NC(=O)NC(C)C)cc3Cl)n2-c2ccc(F)cc2)ccc1Cl` [3-chloro-4-({[5-{1-[4-chloro-3-(methyloxy)phenyl]-1-methylethyl}-1-(4-fluorophenyl)-1H-imidazol-2-yl]thio}methyl)-N-{[(1-methylethyl)amino]carbonyl} benzenesulfonamide] in this work.

An EC50 (human TGR5 (h-TGR5)) of less than 100 nM and an EC50 (h-TGR5) of less than 100 nM were found for `COc1cc(C(C)(C)c2cnc(SCc3c(F)cc(CCCNC(=N)N)cc3F)n2-c2ccc(F)cc2)ccc1Cl` [1-{3-[4-({[5-{1-[4-chloro-3-(methyloxy)phenyl]-1-methylethyl}-1-(4-fluorophenyl)-1H-imidazol-2-yl]thio}methyl)-3,5-difluorophenyl]propyl}guanidine] in this work.

An EC50 (human TGR5 (h-TGR5)) of less than 100 nM and an EC50 (h-TGR5) of 100 to 1000 nM were found for `COc1ccc(C(C)(C)c2cnc(SCc3c(F)cccc3Cl)n2-c2ccc(F)cc2)cc1` [2-{[(2-chloro-6-fluorophenyl)methyl]thio}-1-(4-fluorophenyl)-5-{1-methyl-1-[4-(methyloxy)phenyl]ethyl}-1H-imidazole] in this work.

An EC50 (human TGR5 (h-TGR5)) of 100 to 1000 nM and an EC50 (h-TGR5) of 100 to 1000 nM were found for `CC(C)(c1ccc(S(N)(=O)=O)c(Cl)c1)c1cnc(SCc2ccc(S(=O)(=O)NC(=O)NN3CCOCC3)cc2Cl)n1-c1ccc(F)c(Cl)c1` [4-({[5-{1-[4-(aminosulfonyl)-3-chlorophenyl]-1-methylethyl}-1-(3-chloro-4-fluorophenyl)-1H-imidazol-2-yl]thio}methyl)-3-chloro-N-[(morpholin-4-ylamino)carbonyl]benzenesulfonamide] in this work.

An EC50 (human TGR5 (h-TGR5)) of less than 100 nM and an EC50 (h-TGR5) of less than 100 nM were found for `COc1cc(C(C)(C)c2cnc(SCc3ccc(F)c(-c4nnn[nH]4)c3)n2-c2ccc(F)cc2)ccc1Cl` [5-[5-({[5-{1-[4-chloro-3-(methyloxy)phenyl]-1-methylethyl}-1-(4-fluorophenyl)-1H-imidazol-2-yl]thio}methyl)-2-fluorophenyl]-1H-tetrazole] in this work.

An EC50 (human TGR5 (h-TGR5)) of 100 to 1000 nM and an EC50 (h-TGR5) of 100 to 1000 nM were found for `COc1cc(C(C)(C)c2cnc(SCc3c(F)cc(S(=O)(=O)NC(=O)NN4CCOCC4)cc3F)n2-c2ccc(F)cn2)ccc1Cl` [4-({[5-{1-[4-chloro-3-(methyloxy)phenyl]-1-methylethyl}-1-(5-fluoropyridin-2-yl)-1H-imidazol-2-yl]thio}methyl)-3,5-difluoro-N-[(morpholin-4-ylamino)carbonyl]benzenesulfonamide] in this work.

An EC50 (human TGR5 (h-TGR5)) of 100 to 1000 nM and an EC50 (h-TGR5) of 100 to 1000 nM were found for `CC(C)(c1ccc(S(N)(=O)=O)cc1)c1cnc(SCc2c(F)cccc2Cl)n1-c1ccc(F)cc1` [4-{1-[2-{[(2-chloro-6-fluorophenyl)methyl]thio}-1-(4-fluorophenyl)-1H-imidazol-5-yl]-1-methylethyl}benzenesulfonamide] in this work.

An EC50 (human TGR5 (h-TGR5)) of 100 to 1000 nM and an EC50 (h-TGR5) of 100 to 1000 nM were found for `CC(C)(c1ccc(F)c(F)c1)c1cnc(SCC2CCN(C(=O)NN3CCCC3)CC2)n1-c1ccc(F)cc1` [4-[({5-[1-(3,4-difluorophenyl)-1-methylethyl]-1-(4-fluorophenyl)-1H-imidazol-2-yl}thio)methyl]-N-pyrrolidin-1-ylpiperidine-1-carboxamide] in this work.

An EC50 (human TGR5 (h-TGR5)) of 100 to 1000 nM and an EC50 (h-TGR5) of 100 to 1000 nM were found for `CCN(CC)CCS(=O)(=O)N1CCC(CSc2ncc(C(C)(C)c3ccc(Cl)c(Cl)c3)n2-c2ccc(F)cc2)CC1` [2-({4-[({5-[1-(3,4-dichlorophenyl)-1-methylethyl]-1-(4-fluorophenyl)-1H-imidazol-2-yl}thio)methyl]piperidin-1-yl}sulfonyl)-N,N-diethylethanamine] in this work.

An EC50 (human TGR5 (h-TGR5)) of less than 100 nM and an EC50 (h-TGR5) of 100 to 1000 nM were found for `COc1cc(C(C)(C)c2cnc(SCc3ccc(S(=O)(=O)NC(=O)NN4CCCC4)cc3Cl)n2-c2ccc(F)c(Cl)c2)ccc1Cl` [3-chloro-4-({[1-(3-chloro-4-fluorophenyl)-5-{1-[4-chloro-3-(methyloxy)phenyl]-1-methylethyl}-1H-imidazol-2-yl]thio}methyl)-N-[(pyrrolidine-1-ylamino)carbonyl]benzenesulfonamide] in this work.
